The values below come from ChEMBL document CHEMBL1158055, “Grandisines C-G, indolizidine alkaloids from the Australian rainforest tree Elaeocarpus grandis” (J Nat Prod, 2006).

pIC50: −log10 of the molar value.

Sequence of Delta-type opioid receptor (P41143 whole entry): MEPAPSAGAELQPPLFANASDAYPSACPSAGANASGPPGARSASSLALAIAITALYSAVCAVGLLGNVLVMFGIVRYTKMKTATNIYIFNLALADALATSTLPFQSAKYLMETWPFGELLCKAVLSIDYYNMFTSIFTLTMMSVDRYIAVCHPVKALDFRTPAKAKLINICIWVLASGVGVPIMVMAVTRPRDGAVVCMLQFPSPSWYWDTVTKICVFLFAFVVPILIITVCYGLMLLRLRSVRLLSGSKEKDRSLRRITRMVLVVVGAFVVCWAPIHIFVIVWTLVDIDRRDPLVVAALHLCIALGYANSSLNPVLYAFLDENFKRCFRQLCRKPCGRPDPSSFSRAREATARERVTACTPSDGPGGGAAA

The test addresses Delta-type opioid receptor (Homo sapiens, UniProt P41143). The experiment in a line: Displacement of [125I]deltorphin 2 from human recombinant delta opioid receptor expressed in HEK293 cells. The class given is cell-based.
Turning to `C[C@H]1CC=CC2=C1C(=O)[C@@H]1[C@@H](CCN3CCC[C@@H]13)O2`, the negative logarithm of the IC50 (pIC50) is 5.00.

As for `C[C@H]1C[C@H](O)CC2=C1C(=O)[C@@H]1[C@@H](CCN3CCC[C@@H]13)O2` [GRANDISINE C], the pIC50 was 4.84. Turning to `C[C@H]1CC=CC(=O)[C@@H]1C(=O)C1=CCCN2CCC[C@@H]12` [GRANDISINE D], the pIC50 is 5.78. For `C[C@H]1C[C@H](N)CC2=C1C(=O)[C@@H]1[C@@H](CCN3CCC[C@@H]13)O2` [GRANDISINE F] the value was 5.81. Regarding `COC(=O)C[C@@H]1C[C@H](C)CC(C2=CCCN3CCCC23)=N1` (stereo not given in full) [GRANDISINE G], the pIC50 is 4.12.

One may read the pIC50 as −log10 of the IC50, conventionally taken in molar units.
